Test results published in patent US4820695A, “C-20-dihydro-deoxy-(cyclic amino)-derivatives of macrolide antibiotics” (priority 1987, dated 1989).
≈ marks a conversion by molar mass, not a printed value. Where “and” joins values, the source holds several entries; their conditions need not be identical. Identical values can stand only once. Like-named read-outs stand apart in the source and are kept apart here.

Legend:
Escherichia coli TEM = test: MIC, standard agar-dilution assay (Table IX); assay type: cell-based; conditions: read-out: MIC
Pasteurella multocida [1] = test: Pasteurella infection in one-day-old chicks, subcutaneous administration (Table XII); assay type: in vivo; conditions: Administered subcutaneously, 30 mg/kg × 2, 1 and 4 hours post-challenge
Procedure, shortened: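 Treatment was 30 mg/kg s.c., given twice (1 and 4 h after infection). The infection itself was induced in day-old chicks by s.c. injection of 0.1 ml of avian Pasteurella multocida culture (20-h tryptose broth, diluted 10^-4).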

[2] = test system: Staphylococcus aureus X400; test: MIC, standard agar-dilution assay (Table IX); assay type: cell-based; conditions: Staphylococcus aureus X400, Methicillin-resistant strain, read-out: MIC
[3] = test system: Streptococcus pyogenes C203; test: ED50 in mice experimentally infected with S. pyogenes C203 (Table XI); assay type: in vivo; conditions: Streptococcus pyogenes, doses given 1 and 4 hours postinfection, read-out: ED50
Procedure, shortened: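 Protective ED50 (mg/kg × 2) was determined as the dose sparing half the animals. Test compound was given twice, at 1 and 4 hours after experimental S. pyogenes C203 infection of mice.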

[4] = test system: Haemophilus influenzae 76; test: MIC, standard agar-dilution assay (Table IX); assay type: cell-based; conditions: Haemophilus influenzae 76, Ampicillin-resistant strain, read-out: MIC
[5] = test system: Streptococcus Group D X66; test: MIC, standard agar-dilution assay (Table IX); assay type: cell-based; conditions: read-out: MIC
[6] = test system: Streptococcus pyogenes C203; test: MIC, standard agar-dilution assay (Table IX); assay type: cell-based; conditions: read-out: MIC
[7] = test system: Staphylococcus epidermidis EPI1; test: MIC, standard agar-dilution assay (Table IX); assay type: cell-based; conditions: Staphylococcus epidermidis EPI1; agar-dilution; read-out: MIC
Escherichia coli N10 = test: MIC, standard agar-dilution assay (Table IX); assay type: cell-based; conditions: read-out: MIC
Staphyloccus aureus X1.1 = test: MIC, standard agar-dilution assay (Table IX); assay type: cell-based, Staphylococcus aureus; conditions: Staphylococcus aureus, read-out: MIC
[8] = test system: Staphylococcus aureus S13E; test: MIC, standard agar-dilution assay (Table IX); assay type: cell-based; conditions: Staphylococcus aureus, S13E
Pasteurella multocida [9] = test: Pasteurella infection in one-day-old chicks, medicated drinking water (Table XIII); assay type: in vivo; conditions: Administered in the available drinking water at 2 g/gal
Procedure, shortened: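 Oral dosing was by medicated drinking water (2 g/gal), offered from 4–20 h pre-infection and through a 3-day observation period. The chicks, one day old, were infected s.c. with 0.1 ml of a 10^-4-diluted, 20-h tryptose broth culture of avian Pasteurella multocida.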

Group D strain 9960 = test: MIC, standard agar-dilution assay (Table IX); assay type: cell-based, Streptococcus Group D; conditions: tested using predecessor Group D strain 9960
[10] = test system: Streptococcus pneumoniae Park I; test: MIC, standard agar-dilution assay (Table IX); assay type: cell-based; conditions: Streptococcus pneumoniae Park I; agar-dilution; read-out: MIC
Klebsiella X26 = test: MIC, standard agar-dilution assay (Table IX); assay type: cell-based; conditions: read-out: MIC
Escherichia coli EC14 = test: MIC, standard agar-dilution assay (Table IX); assay type: cell-based; conditions: read-out: MIC
[11] = test system: Pasteurella hemolytica 22C; test: MIC, broth-dilution microtiter test (Table X); assay type: cell-based; conditions: read-out: MIC
From the text: (§1) The MIC's in Table X were obtained using conventional broth-dilution microtiter tests.

[12] = test system: Mycoplasma hyopneumoniae S5972; test: MIC, broth-dilution microtiter test (Table X); assay type: cell-based; conditions: Mesomycoplasma hyopneumoniae, read-out: MIC
From the text: as §1

[13] = test system: Pasteurella multocida 60A; test: MIC, broth-dilution microtiter test (Table X); assay type: cell-based; conditions: Avian isolate, read-out: MIC
From the text: as §1

Staphylococcus aureus = test: MIC, broth-dilution microtiter test (Table X); assay type: cell-based; conditions: read-out: MIC
From the text: as §1

[14] = test system: Pasteurella multocida 17E; test: MIC, broth-dilution microtiter test (Table X); assay type: cell-based; conditions: Bovine isolate, read-out: MIC
From the text: as §1

Mycoplasma synoviae 40A = test: MIC, broth-dilution microtiter test (Table X); assay type: cell-based; conditions: Mycoplasmopsis synoviae, read-out: MIC
From the text: as §1

Streptococcus sp. 19F = test: MIC, broth-dilution microtiter test (Table X); assay type: cell-based; conditions: read-out: MIC
From the text: as §1

Mycoplasma hyorhinis 29E = test: MIC, broth-dilution microtiter test (Table X); assay type: cell-based; conditions: read-out: MIC
From the text: as §1

[15] = test system: Mycoplasma gallisepticum 29C; test: MIC, broth-dilution microtiter test (Table X); assay type: cell-based; conditions: Mycoplasmoides gallisepticum, read-out: MIC
From the text: as §1

[16] = test system: Staphylococcus epidermidis 222; test: MIC, standard agar-dilution assay (Table IX); assay type: cell-based; conditions: read-out: MIC
[17] = test system: Haemophilus influenzae C.L.; test: MIC, standard agar-dilution assay (Table IX); assay type: cell-based; conditions: Ampicillin-sensitive strain, read-out: MIC
[18] = test system: Staphylococcus aureus V41; test: MIC, standard agar-dilution assay (Table IX); assay type: cell-based; conditions: Staphylococcus aureus V41, Penicillin-resistant strain, read-out: MIC
[19] = test system: Streptococcus Group D 2041; test: MIC, standard agar-dilution assay (Table IX); assay type: cell-based; conditions: GROUPD2041, read-out: MIC
[20] = Blood and tissue levels after a single injection; assay type: in vivo
From the text: A special advantage of this invention is that certain of the compounds are effective when administered as a single injection.

[21] = test system: Staphylococcus aureus 19C; test: MIC, broth-dilution microtiter test (Table X); assay type: cell-based
From the text: as §1

[22] = Titratable groups in 66% aqueous DMF (Tables XIV-XVI); assay type: physicochemical
From the text: ^c Run in 66% aqueous DMF
^d Run in 66% aqueous DMF

SMILES	MIC (Escherichia coli TEM)	Number of Deaths/Number Treated (Pasteurella multocida [1])	MIC [2]	ED50 ([3]; C203, Oral)	ED50 ([3]; C203, sc, Subcutaneous)	MIC [4]	MIC [5]	MIC [6]	MIC [7]	MIC (Escherichia coli N10)	MIC (Staphyloccus aureus X1.1)	MIC [8]	MIC [10]	MIC (Klebsiella X26)	MIC (Escherichia coli EC14)	MIC [11]	MIC [13]	MIC [14]	MIC (Mycoplasma synoviae 40A)	MIC (Streptococcus sp. 19F)	other results
CCC1OC(=O)CC(O)C(C)C(OC2OC(C)C(O)C(N(C)C)C2O)C(CCN2CCC(c3ccccc3)CC2)CC(C)C(=O)C=CC(C)=CC1COC1OC(C)C(O)C(OC)C1OC (stereo not shown) [Compound D4, 20-DH-DO-20-(4-Phenylpiperidin-1-yl)desmycosin]	32 µg/mL (≈ 34.9 µM)	9/10	0.5 µg/mL (≈ 0.545 µM)	19 mg/kg	6 mg/kg	8 µg/mL (≈ 8.72 µM)	1 µg/mL (≈ 1.09 µM)	0.25 µg/mL (≈ 0.273 µM)	0.5 µg/mL (≈ 0.545 µM)	64 µg/mL (≈ 69.8 µM)	0.5 µg/mL (≈ 0.545 µM)	0.5 µg/mL (≈ 0.545 µM)	0.25 µg/mL (≈ 0.273 µM)	32 µg/mL (≈ 34.9 µM)	64 µg/mL (≈ 69.8 µM)	6.25 µg/mL (≈ 6.81 µM)	6.25 µg/mL (≈ 6.81 µM)	6.25 µg/mL (≈ 6.81 µM)	< 0.05 µg/mL	0.09 µg/mL (≈ 0.0981 µM)	Number of Deaths/Number Treated (Pasteurella multocida [9]): 6/10; MIC (Group D strain 9960): 2 µg/mL (≈ 2.18 µM); MIC [12]: 0.78 µg/mL (≈ 0.85 µM); MIC (Staphylococcus aureus): 0.39 µg/mL (≈ 0.425 µM); MIC (Mycoplasma hyorhinis 29E): 50 µg/mL (≈ 54.5 µM); MIC [15]: 0.39 µg/mL (≈ 0.425 µM); MIC [16]: 0.25 µg/mL (≈ 0.273 µM); MIC [17]: 8 µg/mL (≈ 8.72 µM); MIC [18]: 0.5 µg/mL (≈ 0.545 µM)
CCC1OC(=O)CC(O)C(C)C(OC2OC(C)C(O)C(N(C)C)C2O)C(CCN2C[C@H](C)C[C@H](C)C2)CC(C)C(=O)C=CC(C)=CC1COC1OC(C)C(O)C(OC)C1OC (stereo partly drawn) [Compound D34, 20-DH-DO-20-(cis-3,5-dimethylpiperidine-1-yl)desmycosin]	32 µg/mL (≈ 36.8 µM)	3/10	1 µg/mL (≈ 1.15 µM)	7.98 mg/kg	< 0.625 mg/kg	4 µg/mL (≈ 4.6 µM)	4 µg/mL (≈ 4.6 µM)	0.5 µg/mL (≈ 0.575 µM)	0.5 µg/mL (≈ 0.575 µM)	128 µg/mL (≈ 147 µM)	1 µg/mL (≈ 1.15 µM)	0.5 µg/mL (≈ 0.575 µM)	2 µg/mL (≈ 2.3 µM)	64 µg/mL (≈ 73.6 µM)	128 µg/mL (≈ 147 µM)	6.25 µg/mL (≈ 7.19 µM)	12.5 µg/mL (≈ 14.4 µM)	12.5 µg/mL (≈ 14.4 µM)	0.78 µg/mL (≈ 0.897 µM)	3.12 µg/mL (≈ 3.59 µM)	Number of Deaths/Number Treated (Pasteurella multocida [9]): 3/10 and 0/10 and 1/10 and 6/10; MIC [19]: 8 µg/mL (≈ 9.2 µM); measurable blood and tissue levels of the drug [20]: prolonged measurable blood and tissue levels of the drug for as long as seven days; MIC [21]: 3.12 µg/mL (≈ 3.59 µM); MIC [12]: 0.78 µg/mL (≈ 0.897 µM); MIC (Mycoplasma hyorhinis 29E): 12.5 µg/mL (≈ 14.4 µM); MIC [15]: 0.195 µg/mL (≈ 0.224 µM); MIC [16]: 0.25 µg/mL (≈ 0.288 µM); MIC [17]: 16 µg/mL (≈ 18.4 µM); MIC [18]: 1 µg/mL (≈ 1.15 µM)
CCC1OC(=O)CC(O)C(C)C(OC2OC(C)C(O)C(N(C)C)C2O)C(CCN2CCCCCCC2)CC(C)C(=O)C=CC(C)=CC1COC1OC(C)C(O)C(O)C1OC (stereo not shown) [Compound L5, 20-DH-DO-20-(octahydroazocin-1-yl)lactenocin]	16 µg/mL (≈ 18.7 µM)	0/10	2 µg/mL (≈ 2.34 µM)	100 mg/kg	1.8 mg/kg	6 µg/mL (≈ 7.02 µM)	16 µg/mL (≈ 18.7 µM)	0.5 µg/mL (≈ 0.585 µM)	1 µg/mL (≈ 1.17 µM)	> 128 µg/mL	1 µg/mL (≈ 1.17 µM)	1 µg/mL (≈ 1.17 µM)	0.5 µg/mL (≈ 0.585 µM)	16 µg/mL (≈ 18.7 µM)	> 128 µg/mL	12.5 µg/mL (≈ 14.6 µM)	12.5 µg/mL (≈ 14.6 µM)	6.25 µg/mL (≈ 7.31 µM)	3.12 µg/mL (≈ 3.65 µM)	0.78 µg/mL (≈ 0.912 µM)	pKa ([22]; Titratable groups): 9.3; pKa ([22]; Titratable groups (first value)): 7.8; MIC (Group D strain 9960): 16 µg/mL (≈ 18.7 µM); MIC (Staphylococcus aureus): 1.56 µg/mL (≈ 1.82 µM); MIC (Mycoplasma hyorhinis 29E): 50 µg/mL (≈ 58.5 µM); MIC [15]: 6.25 µg/mL (≈ 7.31 µM); MIC [16]: 0.5 µg/mL (≈ 0.585 µM); MIC [17]: 32 µg/mL (≈ 37.4 µM); MIC [18]: 1 µg/mL (≈ 1.17 µM)
